According to US12655116B2, “Substituted isophthalic acid diamides” (Bayer Aktiengesellschaft, priority 2020, dated 2026):

Experiments:
[1] = tested on: ABUTH; test: Pre-emergence herbicidal action against ABUTH; type: in vivo, Abutilon theophrasti; conditions: for pest or weed control at 80 g/ha / pest or weed control at 20 g/ha: Abutilon theophrasti, 504 h; for pest or weed control at 20 g/ha: dosage 20 g/ha, scored visually after 3 weeks vs untreated controls, 100% = plants have died, 0% = like control plants, read-out: Pre-emergence action against ABUTH (herbicidal activity in percent)
Outline: (§1)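 Pre-emergence soil-surface spray of formulated compound (WP or EC; 600 to 800 l/ha; 0.2% wetting agent) over seeds sown in sandy loam. After 3 weeks under greenhouse conditions, damage is estimated visually in percent against untreated plants.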

[2] = tested on: ALOMY; test: Pre-emergence herbicidal action against ALOMY; type: in vivo, Alopecurus myosuroides; conditions: 80 g/ha, pre-emergence, scored visually after 3 weeks vs untreated controls (100% = plants have died, 0% = like control plants)
Outline: as §1

[3] = tested on: AMARE; test: Pre-emergence herbicidal action against AMARE; type: in vivo, Amaranthus retroflexus; conditions: for pest or weed control at 20 g/ha / pest or weed control at 80 g/ha: Amaranthus retroflexus, 504 h
Outline: as §1

[4] = tested on: MATIN; test: Pre-emergence herbicidal action against MATIN; type: in vivo, Matricaria inodora; conditions: for pest or weed control at 20 g/ha / pest or weed control at 80 g/ha: Tripleurospermum inodorum, 504 h
Outline: as §1

[5] = tested on: PHBPU; test: Pre-emergence herbicidal action against PHBPU; type: in vivo, Pharbitis purpurea; conditions: dosage 80 g/ha; for pest or weed control at 80 g/ha: Ipomoea purpurea, 504 h
Outline: as §1

[6] = tested on: POLCO; test: Pre-emergence herbicidal action against POLCO; type: in vivo, Polygonum convolvulus; conditions: for pest or weed control at 80 g/ha: Fallopia convolvulus, 504 h
Outline: as §1

[7] = tested on: SETVI; test: Pre-emergence herbicidal action against SETVI; type: in vivo, Setaria viridis
Outline: as §1

[8] = tested on: VERPE; test: Pre-emergence herbicidal action against VERPE; type: in vivo, Veronica persica; conditions: dosage 80 g/ha; for pest or weed control at 80 g/ha: Veronica persica, 504 h
Outline: as §1

[9] = tested on: VIOTR; test: Pre-emergence herbicidal action against VIOTR; type: in vivo, Viola tricolor
Outline: as §1

[10] = tested on: DIGSA; test: Pre-emergence herbicidal action against DIGSA; type: in vivo, Digitaria sanguinalis; conditions: for pest or weed control at 20 g/ha / pest or weed control at 80 g/ha: Digitaria sanguinalis, 504 h; for pest or weed control at 20 g/ha: dosage 20 g/ha
Outline: as §1

[11] = tested on: ABUTH; test: Post-emergence herbicidal action against ABUTH; type: in vivo, Abutilon theophrasti; conditions: visual assessment about 3 weeks after treatment vs untreated controls
Outline: (§2)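 Greenhouse plants in sandy loam were sprayed at the one-leaf stage, 2 to 3 weeks after sowing, with WP or EC formulations as aqueous suspension or emulsion (600 to 800 l/ha water, 0.2% wetting agent). Visual damage was scored about 3 weeks later versus untreated controls, 0% = like control, 100% = dead.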

[12] = tested on: AMARE; test: Post-emergence herbicidal action against AMARE; type: in vivo, Amaranthus retroflexus; conditions: 20 g/ha, visual assessment about 3 weeks after treatment, 100% = plants have died, 0% = like control plants; for pest or weed control at 20 g/ha: Amaranthus retroflexus, 504 h
Outline: as §2

[13] = tested on: MATIN; test: Post-emergence herbicidal action against MATIN; type: in vivo, Matricaria inodora
Outline: as §2

[14] = tested on: PHBPU; test: Post-emergence herbicidal action against PHBPU; type: in vivo, Pharbitis purpurea
Outline: as §2

[15] = tested on: VERPE; test: Post-emergence herbicidal action against VERPE; type: in vivo, Veronica persica
Outline: as §2

[16] = tested on: ECHCG; test: Pre-emergence herbicidal action against ECHCG; type: in vivo, Echinochloa crus-galli; conditions: Echinochloa crus-galli, 504 h, 80 g/ha
Outline: as §1

[17] = tested on: ECHCG; test: Post-emergence herbicidal action against ECHCG; type: in vivo, Echinochloa crus-galli; conditions: Echinochloa crus-galli, 504 h; for pest or weed control at 20 g/ha: dosage 20 g/ha
Outline: as §2

[18] = tested on: SETVI; test: Post-emergence herbicidal action against SETVI; type: in vivo, Setaria viridis; conditions: Setaria viridis, 504 h; for pest or weed control at 5 g/ha: dosage 5 g/ha; for pest or weed control at 20 g/ha: dosage 20 g/ha
Outline: as §2

[19] = tested on: VIOTR; test: Post-emergence herbicidal action against VIOTR; type: in vivo, Viola tricolor; conditions: Viola tricolor, 504 h
Outline: as §2

[20] = tested on: DIGSA; test: Post-emergence herbicidal action against DIGSA; type: in vivo, Digitaria sanguinalis; conditions: Digitaria sanguinalis, 504 h
Outline: as §2

[21] = tested on: AVEFA; test: Pre-emergence herbicidal action against AVEFA; type: in vivo, Avena fatua; conditions: Avena fatua, 504 h; 80 g/ha, pre-emergence
Outline: as §1

[22] = tested on: ALOMY; test: Post-emergence herbicidal action against ALOMY; type: in vivo, Alopecurus myosuroides; conditions: Alopecurus myosuroides, 504 h, dosage 20 g/ha, visual assessment about 3 weeks after treatment vs untreated controls
Outline: as §2

[23] = 80 g/ha, scored visually after 3 weeks vs untreated controls (100% = plants have died, 0% = like control plants)
[24] = 20 g/ha, scored visually after 3 weeks vs untreated controls, 100% = plants have died, 0% = like control plants
[25] = 80 g/ha, scored visually after 3 weeks vs untreated controls, 100% = plants have died, 0% = like control plants
[26] = Setaria viridis, 504 h, dosage 80 g/ha
[27] = Viola tricolor, 504 h, dosage 80 g/ha
[28] = Tripleurospermum inodorum, 504 h, dosage 20 g/ha

CCn1nnnc1NC(=O)c1ccc(C(F)(F)F)c(C(=O)NC2CCC2)c1Cl [Example 2-146]
Pre-emergence action against ABUTH (herbicidal activity) [1, 23]: 90% | Pre-emergence action against ALOMY (herbicidal activity) [2]: 80% | Pre-emergence action against AMARE in % [3, 24]: 100% | Pre-emergence action against AMARE in % [3, 23]: 100% | Pre-emergence action against MATIN in % ([4]; dosage 20 g/ha): 100% | Pre-emergence action against MATIN in % ([4]; dosage 80 g/ha): 100% | Pre-emergence action against PHBPU in % [5]: 90% | Pre-emergence action against POLCO in % ([6]; dosage 20 g/ha): 80% | Pre-emergence action against POLCO in % ([6]; dosage 80 g/ha): 80% | Pre-emergence action against SETVI in % ([7]; dosage 80 g/ha): 100% | Pre-emergence action against VERPE in % [8]: 80% | Pre-emergence action against VIOTR in % ([9]; dosage 20 g/ha): 100% | Pre-emergence action against VIOTR in % ([9]; dosage 80 g/ha): 100% | Pre-emergence action against DIGSA in % ([10]; dosage 80 g/ha): 100% | Post-emergence action against ABUTH in % ([11]; dosage 20 g/ha): 80% | Post-emergence action at 20 g/ha against AMARE in % [12]: 80% | Post-emergence action against MATIN in % ([13]; dosage 5 g/ha): 80% | Post-emergence action against MATIN in % ([13]; dosage 20 g/ha): 90% | Post-emergence action against PHBPU in % ([14]; dosage 5 g/ha): 80% | Post-emergence action against PHBPU in % ([14]; dosage 20 g/ha): 90% | Post-emergence action against VERPE in % ([15]; 20 g/ha): 80%

CNC(=O)c1c(C(F)F)ccc(C(=O)Nc2nnnn2C)c1C1CC1 [Example 1-304]
pest or weed control at 80 g/ha [1, 23]: 100% | pest or weed control at 20 g/ha [1]: 100% | pest or weed control at 20 g/ha [3, 24]: 100% | pest or weed control at 80 g/ha [3, 25]: 100% | pest or weed control at 80 g/ha [16]: 100% | pest or weed control at 20 g/ha ([4]; dosage 20 g/ha): 90% | pest or weed control at 80 g/ha ([4]; dosage 80 g/ha): 100% | pest or weed control at 80 g/ha [5]: 80% | pest or weed control at 80 g/ha ([6]; dosage 80 g/ha): 80% | pest or weed control at 20 g/ha ([7]; Setaria viridis, 504 h, dosage 20 g/ha): 90% | pest or weed control at 80 g/ha [7, 26]: 100% | pest or weed control at 80 g/ha [8]: 100% | pest or weed control at 20 g/ha ([9]; Viola tricolor, 504 h, dosage 20 g/ha): 100% | pest or weed control at 80 g/ha [9, 27]: 100% | pest or weed control at 20 g/ha [10]: 100% | pest or weed control at 80 g/ha ([10]; dosage 80 g/ha): 100% | pest or weed control at 5 g/ha ([11]; Abutilon theophrasti, 504 h, dosage 5 g/ha): 90% | pest or weed control at 20 g/ha ([11]; Abutilon theophrasti, 504 h, dosage 20 g/ha): 90% | pest or weed control at 20 g/ha [12]: 90% | pest or weed control at 20 g/ha [17]: 90% | pest or weed control at 5 g/ha ([13]; Tripleurospermum inodorum, 504 h, dosage 5 g/ha): 90% | pest or weed control at 20 g/ha [13, 28]: 90% | pest or weed control at 5 g/ha [18]: 90% | pest or weed control at 20 g/ha [18]: 90% | pest or weed control at 5 g/ha ([15]; Veronica persica, 504 h, 5 g/ha): 80% | pest or weed control at 20 g/ha ([15]; Veronica persica, 504 h, 20 g/ha): 80% | pest or weed control at 5 g/ha ([19]; 5 g/ha): 80% | pest or weed control at 20 g/ha ([19]; 20 g/ha): 90% | pest or weed control at 20 g/ha [20]: 90%

Cn1nnnc1NC(=O)c1ccc(C(F)F)c(C(=O)NCC(F)(F)F)c1Br [Example 1-229]
pest or weed control at 80 g/ha [1, 23]: 100% | pest or weed control at 20 g/ha [1]: 90% | pest or weed control at 80 g/ha ([2]; Alopecurus myosuroides, 504 h): 90% | pest or weed control at 20 g/ha [3, 24]: 100% | pest or weed control at 80 g/ha [3, 25]: 100% | pest or weed control at 80 g/ha [21]: 80% | pest or weed control at 80 g/ha [16]: 80% | pest or weed control at 20 g/ha ([4]; dosage 20 g/ha): 100% | pest or weed control at 80 g/ha ([4]; dosage 80 g/ha): 100% | pest or weed control at 80 g/ha [5]: 90% | pest or weed control at 80 g/ha ([6]; dosage 80 g/ha): 80% | pest or weed control at 80 g/ha [7, 26]: 100% | pest or weed control at 80 g/ha [8]: 100% | pest or weed control at 80 g/ha [9, 27]: 100% | pest or weed control at 20 g/ha [10]: 100% | pest or weed control at 80 g/ha ([10]; dosage 80 g/ha): 100% | pest or weed control at 20 g/ha [22]: 80% | pest or weed control at 20 g/ha [12]: 90% | pest or weed control at 5 g/ha ([17]; dosage 5 g/ha): 90% | pest or weed control at 20 g/ha [17]: 90% | pest or weed control at 20 g/ha [13, 28]: 80% | pest or weed control at 20 g/ha ([14]; Ipomoea purpurea, 504 h, dosage 20 g/ha): 80% | pest or weed control at 5 g/ha [18]: 80% | pest or weed control at 20 g/ha [18]: 90% | pest or weed control at 5 g/ha ([20]; 5 g/ha): 90% | pest or weed control at 20 g/ha [20]: 90%
